Source: US20220251158A1, “INTERMEDIATE FILAMENT-DERIVED PEPTIDES AND THEIR USES” (UNIVERSITAT DE LLEIDA, priority 2019, published 2022)

Tested on: different populations of leukocytes
Experiment: Annexin V expression in leukocytes with 9 amino acid core peptides
Format: cell-based
Details: 9 amino acid peptide added directly to cell culture
Method: For cell death and apoptosis analysis, 400.000 of primary cells or 100.000 of cell line cells were incubated in 96-well plates in 200 μL of complete culture medium for 24 h at 37° C. and 5% CO2 in the absence or presence of 55 μM of different peptides. After 1 hour, 24 hours or 48 hours, apoptosis was measured by CFBlue Annexin V Apoptosis Detection Kit with PI (ANXVKCFB-100T, Immunostep), following kit protocol. For cleaved caspasa-3 intracellular staining, mononuclear cells were permeabilised following the manufacturer's instructions of the FoxP3 Staining Buffer Set (00-5523-00, eBioscience) and the cleaved caspasa-3-Pacific Blue (8788S, Cell Signalling) was used for staining. Cell suspensions were analysed by flow cytometry using FACS CANTO II instrumentation (BD, Biosciences, San Jose, Calif.) and Flowjo (version 8.7) software.

Sequence | induction of the expression of annexin V
VKLALDIEI (Variant of core sequence - GFAP9) | not to be positive
VKMALDIEI (Variant of core sequence - Per9) | not to be positive
VKMALDVEI (Variant of core sequence - Des9) | not to be positive
